Experimental data published in PubChem BioAssay (NCI).
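A five-concentration, 48-hour dose response in 96-well plates underlies each endpoint, interpolated linearly between surrounding concentrations. GI50 = concentration required for 50% inhibition of growth. TGI: concentration producing complete growth inhibition.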

Assays:
Test in all cases: DTP human tumour cell line panel, 48 h
K-562 leukemia = tested on: K-562 leukemia
HOP-62 NSCLC = tested on: HOP-62 NSCLC
OVCAR-3 ovarian = tested on: OVCAR-3 ovarian
MCF7 breast = tested on: MCF7 breast
SW-620 colon = tested on: SW-620 colon
EKVX NSCLC = tested on: EKVX NSCLC
NCI/ADR-RES ovarian = tested on: NCI/ADR-RES ovarian
ACHN renal = tested on: ACHN renal
CCRF-CEM leukemia = tested on: CCRF-CEM leukemia
OVCAR-4 ovarian = tested on: OVCAR-4 ovarian

CN(c1ccc(NC(=O)Nc2ccc(OC(F)(F)F)cc2)cc1)c1ccnc(Nc2cccc(S(N)(=O)=O)c2)n1 gave a GI50 (K-562 leukemia) of 0.0874 µM, a TGI (K-562 leukemia) of 4.31 µM and a GI50 (HOP-62 NSCLC) of 3.71 µM. The TGI (HOP-62 NSCLC) was 8.1 µM, the GI50 (OVCAR-3 ovarian) was 3.05 µM and the TGI (OVCAR-3 ovarian) was 6.69 µM. The GI50 (MCF7 breast) was 1.06 µM, the TGI (MCF7 breast) was 5.56 µM and the GI50 (SW-620 colon) was 2.93 µM. It also gave a TGI (SW-620 colon) of 6.62 µM, a GI50 (EKVX NSCLC) of 5.33 µM and a TGI (EKVX NSCLC) of 12.4 µM. For the same compound, the GI50 (NCI/ADR-RES ovarian) was 12.6 µM, the TGI (NCI/ADR-RES ovarian) was 25 µM and the GI50 (ACHN renal) was 5.42 µM. For the same compound, the TGI (ACHN renal) was 15.5 µM, the GI50 (CCRF-CEM leukemia) was 0.412 µM and the TGI (CCRF-CEM leukemia) was 25 µM. It also gave a GI50 (OVCAR-4 ovarian) of 3.06 µM and a TGI (OVCAR-4 ovarian) of 8.03 µM.

Work on Cn1ccnc1C(=O)/C=C/c1ccc(CC(=O)Nc2ccc(S(F)(F)(F)(F)F)cc2)cc1 yielded a GI50 (K-562 leukemia) of 0.549 µM, a TGI (K-562 leukemia) of 16.7 µM and a GI50 (HOP-62 NSCLC) of 2.58 µM. For the same compound, the TGI (HOP-62 NSCLC) was 6.18 µM, the GI50 (OVCAR-3 ovarian) was 2.18 µM and the TGI (OVCAR-3 ovarian) was 4.91 µM. The GI50 (MCF7 breast) was 0.625 µM, the TGI (MCF7 breast) was 5.54 µM and the GI50 (SW-620 colon) was 1.03 µM. For the same compound, the TGI (SW-620 colon) was 4.09 µM, the GI50 (EKVX NSCLC) was 2.84 µM and the TGI (EKVX NSCLC) was 8.23 µM. For the same compound, the GI50 (NCI/ADR-RES ovarian) was 3.53 µM, the TGI (NCI/ADR-RES ovarian) was 9.35 µM and the GI50 (ACHN renal) was 2.45 µM. For the same compound, the TGI (ACHN renal) was 4.82 µM, the GI50 (CCRF-CEM leukemia) was 0.538 µM and the TGI (CCRF-CEM leukemia) was 16.7 µM. It also gave a GI50 (OVCAR-4 ovarian) of 2.35 µM and a TGI (OVCAR-4 ovarian) of 9.07 µM.

In the case of COc1ccn2c(C(C)=O)cc(C(=O)c3ccc4c(c3)Sc3ccccc3N4)c2c1, the GI50 (K-562 leukemia) is reported as 0.0643 µM, the TGI (K-562 leukemia) is reported as > 100 µM and the GI50 (HOP-62 NSCLC) is reported as 0.136 µM. For the same compound, the TGI (HOP-62 NSCLC) was > 100 µM, the GI50 (OVCAR-3 ovarian) was 0.0801 µM and the TGI (OVCAR-3 ovarian) was 0.206 µM. For the same compound, the GI50 (MCF7 breast) was 0.0893 µM, the TGI (MCF7 breast) was > 100 µM and the GI50 (SW-620 colon) was 0.148 µM. The TGI (SW-620 colon) was > 100 µM, the GI50 (EKVX NSCLC) was 0.183 µM and the TGI (EKVX NSCLC) was > 100 µM. The GI50 (NCI/ADR-RES ovarian) was 0.0547 µM, the GI50 (ACHN renal) was 0.145 µM and the TGI (ACHN renal) was > 100 µM. The GI50 (CCRF-CEM leukemia) was 0.135 µM, the TGI (CCRF-CEM leukemia) was > 100 µM and the TGI (OVCAR-4 ovarian) was > 100 µM.

O=C1c2ccc3c4c5ccc(c24)C(=O)N1CCCOCCCCOCCCNCc1ccc(cc1)CNCCCOCCCCOCCCN(C3=O)C5=O was tested, and the GI50 (K-562 leukemia) was 0.987 µM, the TGI (K-562 leukemia) was 2.4 µM and the GI50 (HOP-62 NSCLC) was 1.15 µM. The TGI (HOP-62 NSCLC) was 3.31 µM, the GI50 (OVCAR-3 ovarian) was 0.766 µM and the TGI (OVCAR-3 ovarian) was 1.79 µM. It also gave a GI50 (MCF7 breast) of 0.686 µM, a TGI (MCF7 breast) of 1.6 µM and a GI50 (SW-620 colon) of 0.964 µM. It also gave a TGI (SW-620 colon) of 2.06 µM, a GI50 (EKVX NSCLC) of 0.824 µM and a TGI (EKVX NSCLC) of 1.63 µM. The GI50 (NCI/ADR-RES ovarian) was 6.12 µM, the TGI (NCI/ADR-RES ovarian) was 17.5 µM and the GI50 (ACHN renal) was 0.859 µM. It also gave a TGI (ACHN renal) of 1.57 µM, a GI50 (CCRF-CEM leukemia) of 0.889 µM and a TGI (CCRF-CEM leukemia) of 2.84 µM. It also gave a GI50 (OVCAR-4 ovarian) of 0.567 µM and a TGI (OVCAR-4 ovarian) of 1.18 µM.

COc1cc(C(O)c2nc3ccccc3s2)cc(OC)c1OC (configuration not stated) was tested, and the GI50 (K-562 leukemia) was 3.6 µM, the TGI (K-562 leukemia) was > 100 µM and the GI50 (HOP-62 NSCLC) was 43.8 µM. The TGI (HOP-62 NSCLC) was > 100 µM, the GI50 (OVCAR-3 ovarian) was 88.9 µM and the TGI (OVCAR-3 ovarian) was > 100 µM. For the same compound, the GI50 (MCF7 breast) was 41.3 µM, the TGI (MCF7 breast) was > 100 µM and the GI50 (SW-620 colon) was > 100 µM. For the same compound, the TGI (SW-620 colon) was > 100 µM, the GI50 (EKVX NSCLC) was 2.83 µM and the TGI (EKVX NSCLC) was > 100 µM. For the same compound, the GI50 (NCI/ADR-RES ovarian) was 8.96 µM, the TGI (NCI/ADR-RES ovarian) was > 100 µM and the GI50 (ACHN renal) was 65.5 µM. The TGI (ACHN renal) was > 100 µM, the GI50 (CCRF-CEM leukemia) was 49.5 µM and the TGI (CCRF-CEM leukemia) was > 100 µM. The GI50 (OVCAR-4 ovarian) was 30.9 µM and the TGI (OVCAR-4 ovarian) was > 100 µM.

For COC(=O)c1cc(-c2cc(OC)c(OC)c(OC)c2)[nH]c1N/N=C/c1c(Cl)cccc1Cl, the TGI (K-562 leukemia) was > 100 µM, the GI50 (HOP-62 NSCLC) was 2.1 µM and the TGI (HOP-62 NSCLC) was 13 µM. For the same compound, the GI50 (OVCAR-3 ovarian) was 0.57 µM, the TGI (OVCAR-3 ovarian) was 3.02 µM and the GI50 (MCF7 breast) was 1.77 µM. For the same compound, the TGI (MCF7 breast) was 53 µM, the GI50 (SW-620 colon) was 1.51 µM and the TGI (SW-620 colon) was > 33.8 µM. The GI50 (EKVX NSCLC) was 8.72 µM, the TGI (EKVX NSCLC) was 52.9 µM and the GI50 (NCI/ADR-RES ovarian) was 1.46 µM. The TGI (NCI/ADR-RES ovarian) was 18.4 µM, the GI50 (ACHN renal) was 0.963 µM and the TGI (ACHN renal) was 9.17 µM. The GI50 (CCRF-CEM leukemia) was 14.1 µM, the TGI (CCRF-CEM leukemia) was > 100 µM and the GI50 (OVCAR-4 ovarian) was 0.666 µM. The TGI (OVCAR-4 ovarian) was 2.68 µM.

For COC1(O)C(=O)c2ccccc2OC1(OC)c1ccccc1 (configuration not stated), the TGI (K-562 leukemia) was > 100 µM, the TGI (HOP-62 NSCLC) was > 100 µM and the TGI (OVCAR-3 ovarian) was > 100 µM. The TGI (MCF7 breast) was > 100 µM, the TGI (SW-620 colon) was > 100 µM and the TGI (EKVX NSCLC) was > 100 µM. The TGI (NCI/ADR-RES ovarian) was > 100 µM, the TGI (ACHN renal) was > 100 µM and the TGI (CCRF-CEM leukemia) was > 100 µM. The TGI (OVCAR-4 ovarian) was > 100 µM.

CN1CCN(c2nc(NCCCCNc3ccnc4cc(Cl)ccc34)c3ccccc3n2)CC1 was tested, and the GI50 (K-562 leukemia) was 2.53 µM, the TGI (K-562 leukemia) was 11.8 µM and the GI50 (HOP-62 NSCLC) was 5.15 µM. The TGI (HOP-62 NSCLC) was 20.2 µM, the GI50 (OVCAR-3 ovarian) was 5.36 µM and the TGI (OVCAR-3 ovarian) was 22.6 µM. It also gave a GI50 (MCF7 breast) of 4.3 µM, a TGI (MCF7 breast) of 19.1 µM and a GI50 (SW-620 colon) of 4.42 µM. For the same compound, the TGI (SW-620 colon) was 18.2 µM, the GI50 (EKVX NSCLC) was 16.4 µM and the TGI (EKVX NSCLC) was 40.7 µM. The GI50 (NCI/ADR-RES ovarian) was 19 µM, the TGI (NCI/ADR-RES ovarian) was 56.1 µM and the GI50 (ACHN renal) was 2.52 µM. The TGI (ACHN renal) was 7.32 µM, the GI50 (CCRF-CEM leukemia) was 2.62 µM and the TGI (CCRF-CEM leukemia) was 93.9 µM. The GI50 (OVCAR-4 ovarian) was 2.14 µM and the TGI (OVCAR-4 ovarian) was 6.99 µM.

For COc1cc2c3c(n(CCCNCC(OC)OC)c(=O)c2cc1OC)-c1cc2c(cc1C3=O)OCO2, the GI50 (K-562 leukemia) was 0.91 µM, the TGI (K-562 leukemia) was > 46.8 µM and the GI50 (HOP-62 NSCLC) was 0.126 µM. The TGI (HOP-62 NSCLC) was 4.66 µM, the GI50 (OVCAR-3 ovarian) was 3.81 µM and the TGI (OVCAR-3 ovarian) was 32.7 µM. For the same compound, the GI50 (MCF7 breast) was < 0.0315 µM, the TGI (MCF7 breast) was > 48.6 µM and the GI50 (SW-620 colon) was 2.05 µM. For the same compound, the TGI (SW-620 colon) was 24.2 µM, the GI50 (EKVX NSCLC) was 15.7 µM and the TGI (EKVX NSCLC) was > 57.3 µM. The GI50 (NCI/ADR-RES ovarian) was 0.338 µM, the TGI (NCI/ADR-RES ovarian) was 29.3 µM and the GI50 (ACHN renal) was 5.34 µM. The TGI (ACHN renal) was > 37.4 µM, the GI50 (CCRF-CEM leukemia) was < 0.01 µM and the TGI (CCRF-CEM leukemia) was 1.8 µM. The GI50 (OVCAR-4 ovarian) was 20.1 µM and the TGI (OVCAR-4 ovarian) was 42.7 µM.

With COc1ccc2c(c1)c(-c1nc(-c3c[nH]c4ncccc34)cs1)cn2CCCCN1CCOCC1 the GI50 (K-562 leukemia) was 1.95 µM, the TGI (K-562 leukemia) was 3.99 µM and the GI50 (HOP-62 NSCLC) was 1.91 µM. For the same compound, the TGI (HOP-62 NSCLC) was 4.08 µM, the GI50 (OVCAR-3 ovarian) was 1.87 µM and the TGI (OVCAR-3 ovarian) was 3.74 µM. The GI50 (MCF7 breast) was 1.56 µM, the TGI (MCF7 breast) was 3.56 µM and the GI50 (SW-620 colon) was 1.99 µM. The TGI (SW-620 colon) was 3.92 µM, the GI50 (EKVX NSCLC) was 2.66 µM and the TGI (EKVX NSCLC) was 9.69 µM. It also gave a GI50 (NCI/ADR-RES ovarian) of 2.34 µM, a TGI (NCI/ADR-RES ovarian) of 5.78 µM and a GI50 (ACHN renal) of 1.79 µM. For the same compound, the TGI (ACHN renal) was 3.4 µM, the GI50 (CCRF-CEM leukemia) was 2.12 µM and the TGI (CCRF-CEM leukemia) was 5.1 µM. The GI50 (OVCAR-4 ovarian) was 2.21 µM and the TGI (OVCAR-4 ovarian) was 5.53 µM.
